Patent publication US20240368113A1, “AMIDE COMPOUND AND USE THEREOF” (Chengdu Fendi Pharmaceutical Co. Ltd., priority 2021, published 2024)
Read-outs that look alike come from different tables or passages of the source.

Tests used:
hERG potassium channel [1] = biological target: T1, hERG potassium channel (Homo sapiens, UniProt Q12809); assay: in vitro; settings: hERG Inhibition rate (3 μM), HEK293 cells expressing hERG, 3 min exposure
Method: (§2) This test example is used to measure the effect of the compound on the hERG potassium channel of the clone expressed in human embryonic kidney cells (HEK293).
(§3) Assay: cells are placed in HEPES-buffered saline solution in glass-lined 96-well plates and loaded with appropriate amounts of test and control solution (0.3% DMSO solution) at each concentration for 3 min exposure time. Dilute the compound to be tested in 0.3% DMSO. An automated parallel patch-clamp system QPatch 48 X (Sophion) was used to test the inhibition of hERG by compounds at a concentration of 3 μM.
(§4) The calculation method of the inhibition rate is as follows: (peak tail current in the control group−peak tail current in the test group)/(peak tail current in the control group)×100%.

hERG potassium channel [2] = biological target: T1, hERG potassium channel; assay: hERG inhibition assay (automated patch clamp, QPatch); settings: HEK293 cells expressing hERG, 3 min exposure
Method: as §2, §3, §4

MV-4-11 cells = assay: Inhibition of tumor cell proliferation (CellTiter-Glo); assay type: cell-based; settings: Homo sapiens, read-out: IC50 of inhibitory activity of tumor cell proliferation
Method: MV-4-11 cells were diluted with medium (RPM1640+10% FBS+1% PS) and plated at 4000 cells/well in a white-walled clear-bottom 96-well plate. MV-4-11 cells were plated and incubated in a 5% CO2, 37° C. incubator for 2 hours. Cells were treated with the indicated concentration of compound or DMSO (control), and placed in a 5% CO2, 37° C. incubator for 72 h after dosing. After the end of the culture, equilibrate at room temperature for 30 min, add 100 μl of CellTiter-Glo® Reagent to each well, and shake the microplate shaker for 2 min. After 10 min of incubation at room temperature, the luminescence was measured by a microplate reader, and the cell-free wells were used as the background wells. CC-90009 (celegen patent phase I) was used as a control, and its structural formula was as follows: 0

GSPT1 [3] = biological target: T2, GSPT1 (Homo sapiens, UniProt P15170); assay: Western blot of GSPT1 degradation in MV-4-11 cells; assay type: cell-based; set-up: endogenous in cells; settings: 4 h treatment, western blot (FIG. 1)
T2 sequence (P15170 whole entry): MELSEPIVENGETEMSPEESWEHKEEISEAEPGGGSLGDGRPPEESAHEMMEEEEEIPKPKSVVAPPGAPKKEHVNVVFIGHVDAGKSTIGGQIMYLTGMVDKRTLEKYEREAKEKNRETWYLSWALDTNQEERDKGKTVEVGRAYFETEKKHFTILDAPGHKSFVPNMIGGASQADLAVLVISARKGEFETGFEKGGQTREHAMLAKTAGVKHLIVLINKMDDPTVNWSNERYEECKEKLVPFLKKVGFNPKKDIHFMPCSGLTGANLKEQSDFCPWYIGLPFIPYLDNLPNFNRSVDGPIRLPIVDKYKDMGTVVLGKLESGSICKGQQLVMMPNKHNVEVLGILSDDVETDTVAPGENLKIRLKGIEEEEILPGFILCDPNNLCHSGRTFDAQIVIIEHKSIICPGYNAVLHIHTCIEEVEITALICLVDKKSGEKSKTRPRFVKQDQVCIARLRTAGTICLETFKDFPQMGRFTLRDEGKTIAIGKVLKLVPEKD
Method: (§1) Test Case 1: Regulatory Effect of the Present Invention Compound on GSPT1 in MV-4-11 Cells MV-4-11 (human myeloid monocytic leukemia cells) and NB-4 (human acute promyelocytic leukemia cells) cells were treated with medium RPMI 1640+10% FBS at 1*10^6/well was seeded in 6-well plates, then compounds were added for 4 h treatment, DMSO was used as a blank control, and cells were collected by centrifugation. Western blot analysis was performed with antibody labeling (Anti-GSPT1: CellSignaling Technology #14980s; Anti-GAPDH: HuabioET601-4; Goatanti-RabbitIgG-HRPantibody: HuabioHA1001) for detection on a Bio-Rad or MINICHEMI™ imaging system.

GSPT1 [4] = biological target: T2, GSPT1; assay: Western blot of GSPT1 degradation in NB-4 cells; assay type: cell-based; set-up: endogenous in cells; host or cells: NB-4
Method: as §1

[5] = MV4-11, MV-4-11 cells, 72 h, CellTiter-Glo

T1 sequence (Q12809 whole entry): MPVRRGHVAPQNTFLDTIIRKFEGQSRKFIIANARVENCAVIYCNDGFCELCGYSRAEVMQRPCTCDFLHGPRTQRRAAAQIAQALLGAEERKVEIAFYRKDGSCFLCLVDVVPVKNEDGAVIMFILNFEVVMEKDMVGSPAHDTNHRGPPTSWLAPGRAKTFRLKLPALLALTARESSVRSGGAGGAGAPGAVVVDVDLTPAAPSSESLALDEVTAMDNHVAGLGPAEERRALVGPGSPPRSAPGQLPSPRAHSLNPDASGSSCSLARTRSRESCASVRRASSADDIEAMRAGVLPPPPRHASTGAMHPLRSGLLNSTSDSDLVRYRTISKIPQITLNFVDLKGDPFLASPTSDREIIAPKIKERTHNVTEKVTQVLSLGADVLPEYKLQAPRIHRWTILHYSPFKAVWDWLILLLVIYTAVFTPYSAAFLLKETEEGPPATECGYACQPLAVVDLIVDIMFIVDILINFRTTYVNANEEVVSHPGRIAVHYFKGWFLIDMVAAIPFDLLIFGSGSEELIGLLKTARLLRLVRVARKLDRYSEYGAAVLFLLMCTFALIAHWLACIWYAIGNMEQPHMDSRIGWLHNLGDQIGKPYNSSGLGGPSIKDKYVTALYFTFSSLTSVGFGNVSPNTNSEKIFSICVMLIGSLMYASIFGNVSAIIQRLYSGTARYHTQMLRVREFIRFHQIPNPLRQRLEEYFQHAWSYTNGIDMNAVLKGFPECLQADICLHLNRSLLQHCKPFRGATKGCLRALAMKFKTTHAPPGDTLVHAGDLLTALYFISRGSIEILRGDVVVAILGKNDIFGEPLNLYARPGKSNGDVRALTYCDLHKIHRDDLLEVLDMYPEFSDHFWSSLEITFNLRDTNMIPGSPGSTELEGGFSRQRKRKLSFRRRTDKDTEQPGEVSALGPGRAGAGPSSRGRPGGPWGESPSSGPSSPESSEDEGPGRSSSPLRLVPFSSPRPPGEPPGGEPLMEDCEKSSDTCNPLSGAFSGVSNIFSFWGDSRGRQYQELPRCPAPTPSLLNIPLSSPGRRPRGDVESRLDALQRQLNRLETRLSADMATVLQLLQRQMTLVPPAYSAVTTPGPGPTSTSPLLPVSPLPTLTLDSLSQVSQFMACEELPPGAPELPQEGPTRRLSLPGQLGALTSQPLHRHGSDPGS

| Structure (SMILES) | IC50 (MV-4-11 cells; [5]) | also measured |
| --- | --- | --- |
| O=C1CCC(N2Cc3cc(CNC(=O)C(F)(F)c4ccc(Cl)cc4)ccc3C2=O)C(=O)N1 (stereo not shown) [CC-90009] | 10 to 100 nM | inhibition at 3 µM (hERG potassium channel [1]): 64%; hERG Inhibition rate (3 μM) (hERG potassium channel [2]): 64.48% |
| CC(C)(C)C(=O)OCOC(=O)c1cccc(C#CC(=O)NCc2ccc3c(c2)CN(C2CCC(=O)NC2=O)C3=O)c1 (stereo not shown) [Compound 78] | > 100 nM |  |
| COP(=O)(OC)Oc1ccc(C#CC(=O)NCc2ccc3c(c2)CN(C2CCC(=O)NC2=O)C3=O)cc1 (stereo not shown) [Compound 80] |  | IC50 (MV-4-11 cells; MV4-11, 72 h): 10 to 100 nM |
| O=C(C#Cc1ccc(OP(=O)(Oc2ccccc2)Oc2ccccc2)cc1)NCc1ccc2c(c1)CN(C1CCC(=O)NC1=O)C2=O (stereo not shown) [Compound 81] |  | IC50 (MV-4-11 cells; MV4-11, 72 h): < 1 nM |
| CC1(C)COP(=O)(Oc2ccc(C#CC(=O)NCc3ccc4c(c3)CN(C3CCC(=O)NC3=O)C4=O)cc2)OC1 (stereo not shown) [Compound 82] |  | IC50 (MV-4-11 cells; MV4-11, 72 h): 10 to 100 nM |
| O=C(C#CC1CCCCN1C(=O)C(F)(F)F)NCc1ccc2c(c1)CN(C1CCC(=O)NC1=O)C2=O (stereo not shown) [Compound 85] | 10 to 100 nM |  |
| CC(C)(C)OC(=O)CCC(=O)Oc1ccc(C#CC(=O)NCc2ccc3c(c2)CN(C2CCC(=O)NC2=O)C3=O)cc1 (stereo not shown) [Compound 87] | 10 to 100 nM |  |
| CC(C)(C)OC(=O)CCC(=O)Oc1ccccc1C#CC(=O)NCc1ccc2c(c1)CN(C1CCC(=O)NC1=O)C2=O (stereo not shown) [Compound 89] | 1 to 10 nM |  |
| Cc1c(C#CC(=O)NCc2ccc3c(c2)CN(C2CCC(=O)NC2=O)C3=O)cccc1C(=O)O (stereo not shown) [Compound 92] | > 100 nM |  |
| CC1(C)COP(=O)(Oc2ccccc2C#CC(=O)NCc2ccc3c(c2)CN(C2CCC(=O)NC2=O)C3=O)OC1 (stereo not shown) [Compound 97] |  | IC50 (MV-4-11 cells; MV4-11, 72 h): 1 to 10 nM |
| O=C(C#Cc1cc2ccccc2o1)NCc1ccc2c(c1)CN(C1CCC(=O)NC1=O)C2=O (stereo not shown) [Compound 98] | 1 to 10 nM |  |
| O=C(C#Cc1ccc(O)c(Cl)c1)NCc1ccc2c(c1)CN(C1CCC(=O)NC1=O)C2=O (stereo not shown) [Compound 101] | 10 to 100 nM |  |
| O=C(C#Cc1ccc(C(=O)O)cc1Cl)NCc1ccc2c(c1)CN(C1CCC(=O)NC1=O)C2=O (stereo not shown) [Compound 103] | 10 to 100 nM |  |
| O=C(C#Cc1ccc(Cl)c(C(=O)O)c1)NCc1ccc2c(c1)CN(C1CCC(=O)NC1=O)C2=O (stereo not shown) [Compound 104] | < 1 nM |  |
| O=C(C#Cc1ccc2[nH]ncc2c1)NCc1ccc2c(c1)CN(C1CCC(=O)NC1=O)C2=O (stereo not shown) [Compound 107] | 10 to 100 nM |  |
| O=C(C#Cc1ccc2[nH]ccc2c1)NCc1ccc2c(c1)CN(C1CCC(=O)NC1=O)C2=O (stereo not shown) [Compound 108] | 1 to 10 nM |  |
| O=C(C#Cc1cc2ccccc2[nH]1)NCc1ccc2c(c1)CN(C1CCC(=O)NC1=O)C2=O (stereo not shown) [Compound 110] | 1 to 10 nM |  |
| O=C(C#CC(O)c1ccccc1)NCc1ccc2c(c1)CN(C1CCC(=O)NC1=O)C2=O (stereo not shown) [Compound 115] | > 100 nM |  |
| CC(=O)c1ccccc1C#CC(=O)NCc1ccc2c(c1)CN(C1CCC(=O)NC1=O)C2=O (stereo not shown) [Compound 116] | 1 to 10 nM |  |
| O=C(C#Cc1ccc2ncsc2c1)NCc1ccc2c(c1)CN(C1CCC(=O)NC1=O)C2=O (stereo not shown) [Compound 120] | 1 to 10 nM |  |
| O=C(C#Cc1ccc2ncoc2c1)NCc1ccc2c(c1)CN(C1CCC(=O)NC1=O)C2=O (stereo not shown) [Compound 122] | 10 to 100 nM |  |
| Nc1ccc(C#CC(=O)NCc2ccc3c(c2)CN(C2CCC(=O)NC2=O)C3=O)cc1 (stereo not shown) [Compound 124] | 10 to 100 nM |  |
| O=C(C#CN1CCCC1)NCc1ccc2c(c1)CN(C1CCC(=O)NC1=O)C2=O (stereo not shown) [Compound 126] | > 100 nM |  |
| O=C(C#Cc1ccc2nc[nH]c(=O)c2c1)NCc1ccc2c(c1)CN(C1CCC(=O)NC1=O)C2=O (stereo not shown) [Compound 128] | 10 to 100 nM |  |
| O=C(C#Cc1cc2cn[nH]c2cc1F)NCc1ccc2c(c1)CN(C1CCC(=O)NC1=O)C2=O (stereo not shown) [Compound 129] | 10 to 100 nM |  |
| Cn1cnc2cc(C#CC(=O)NCc3ccc4c(c3)CN(C3CCC(=O)NC3=O)C4=O)ccc21 (stereo not shown) [Compound 131] | 1 to 10 nM |  |
| Cn1cnc2ccc(C#CC(=O)NCc3ccc4c(c3)CN(C3CCC(=O)NC3=O)C4=O)cc21 (stereo not shown) [Compound 132] | 10 to 100 nM |  |
| Cn1cnc2c(C#CC(=O)NCc3ccc4c(c3)CN(C3CCC(=O)NC3=O)C4=O)cccc21 (stereo not shown) [Compound 133] | 1 to 10 nM |  |

The next lines start with results.

| IC50 (MV-4-11 cells; [5]) | Structure (SMILES) | also measured |
| --- | --- | --- |
| < 1 nM | CCc1ccc(C#CC(=O)NCc2ccc3c(c2)CN(C2CCC(=O)NC2=O)C3=O)cc1 (stereo not shown) [Compound 1] | degradation of GSPT1 protein (GSPT1 [3]; 10 μM): completely degradation |
| 1 to 10 nM | O=C(C#Cc1ccc(F)cn1)NCc1ccc2c(c1)CN(C1CCC(=O)NC1=O)C2=O (stereo not shown) [Compound 12] | degradation of GSPT1, concentration dependence (GSPT1 [3]; concentrations from 1.52 nM): induced the degradation of GSPT1 more as the concentration increases |
| 1 to 10 nM | O=C(C#Cc1cc(O)ccc1Cl)NCc1ccc2c(c1)CN(C1CCC(=O)NC1=O)C2=O (stereo not shown) [Compound 79] |  |
| 1 to 10 nM | Nc1ccccc1C#CC(=O)NCc1ccc2c(c1)CN(C1CCC(=O)NC1=O)C2=O (stereo not shown) [Compound 83] | degradation of GSPT1 (GSPT1 [4]; 0.01 μM, 4 h treatment, western blot (FIG. 1)): significantly degradation; compound-induced degradation of GSPT1 after pretreatment with MG132 or MLN4924 (GSPT1 [4]; pretreatment with proteasome inhibitor MG132 or NEDD8 activating enzyme inhibitor MLN4924): completely blocked |
| 1 to 10 nM | Nc1cccc(C#CC(=O)NCc2ccc3c(c2)CN(C2CCC(=O)NC2=O)C3=O)c1 (stereo not shown) [Compound 84] |  |
| 10 to 100 nM | O=C(O)CCC(=O)Oc1ccc(C#CC(=O)NCc2ccc3c(c2)CN(C2CCC(=O)NC2=O)C3=O)cc1 (stereo not shown) [Compound 86] |  |
| 1 to 10 nM | O=C(O)CCC(=O)Oc1ccccc1C#CC(=O)NCc1ccc2c(c1)CN(C1CCC(=O)NC1=O)C2=O (stereo not shown) [Compound 88] |  |
| > 100 nM | O=C(C#Cc1ccc(Cl)cc1C(=O)O)NCc1ccc2c(c1)CN(C1CCC(=O)NC1=O)C2=O (stereo not shown) [Compound 90] |  |
| 1 to 10 nM | O=C(C#Cc1cc(C(=O)O)c(F)cc1F)NCc1ccc2c(c1)CN(C1CCC(=O)NC1=O)C2=O (stereo not shown) [Compound 91] |  |
| > 100 nM | CCCC(=O)OCOC(=O)c1ccccc1C#CC(=O)NCc1ccc2c(c1)CN(C1CCC(=O)NC1=O)C2=O (stereo not shown) [Compound 94] |  |
| > 100 nM | CCCC(=O)OCOC(=O)c1cccc(C#CC(=O)NCc2ccc3c(c2)CN(C2CCC(=O)NC2=O)C3=O)c1 (stereo not shown) [Compound 95] |  |
| > 100 nM | CC(=O)OCOC(=O)c1ccccc1C#CC(=O)NCc1ccc2c(c1)CN(C1CCC(=O)NC1=O)C2=O (stereo not shown) [Compound 96] |  |
| < 1 nM | O=C(C#Cc1coc2ccccc12)NCc1ccc2c(c1)CN(C1CCC(=O)NC1=O)C2=O (stereo not shown) [Compound 99] |  |
| > 100 nM | O=C(C#Cc1cc(Cl)c(O)c(Cl)c1)NCc1ccc2c(c1)CN(C1CCC(=O)NC1=O)C2=O (stereo not shown) [Compound 100] |  |
| < 1 nM | O=C(C#Cc1ccc2occc2c1)NCc1ccc2c(c1)CN(C1CCC(=O)NC1=O)C2=O (stereo not shown) [Compound 102] |  |
| 1 to 10 nM | Cc1cc(O)cc(C)c1C#CC(=O)NCc1ccc2c(c1)CN(C1CCC(=O)NC1=O)C2=O (stereo not shown) [Compound 105] |  |
| 10 to 100 nM | O=C(C#Cc1nc2ccccc2s1)NCc1ccc2c(c1)CN(C1CCC(=O)NC1=O)C2=O (stereo not shown) [Compound 106] |  |
| 1 to 10 nM | O=C(C#Cc1ccc(O)cc1Cl)NCc1ccc2c(c1)CN(C1CCC(=O)NC1=O)C2=O (stereo not shown) [Compound 109] |  |
| 1 to 10 nM | O=C(C#CC1CCCC1)NCc1ccc2c(c1)CN(C1CCC(=O)NC1=O)C2=O (stereo not shown) [Compound 111] |  |
| 1 to 10 nM | Cc1cc(O)ccc1C#CC(=O)NCc1ccc2c(c1)CN(C1CCC(=O)NC1=O)C2=O (stereo not shown) [Compound 112] |  |
| < 1 nM | Cc1cccc(C#CC(=O)NCc2ccc3c(c2)CN(C2CCC(=O)NC2=O)C3=O)c1O (stereo not shown) [Compound 113] |  |
| 1 to 10 nM | Cc1c(O)cccc1C#CC(=O)NCc1ccc2c(c1)CN(C1CCC(=O)NC1=O)C2=O (stereo not shown) [Compound 114] |  |
| < 1 nM | CC(=O)c1cccc(C#CC(=O)NCc2ccc3c(c2)CN(C2CCC(=O)NC2=O)C3=O)c1 (stereo not shown) [Compound 117] |  |
| 1 to 10 nM | CC(=O)c1ccc(C#CC(=O)NCc2ccc3c(c2)CN(C2CCC(=O)NC2=O)C3=O)cc1 (stereo not shown) [Compound 118] |  |
| > 100 nM | CC1=C(C(=O)NCc2ccc3c(c2)CN(C2CCC(=O)NC2=O)C3=O)C(=O)c2ccccc21 (stereo not shown) [Compound 119] |  |
| < 1 nM | O=C(C#Cc1ccc2scnc2c1)NCc1ccc2c(c1)CN(C1CCC(=O)NC1=O)C2=O (stereo not shown) [Compound 121] |  |
| < 1 nM | O=C(C#Cc1ccc2ocnc2c1)NCc1ccc2c(c1)CN(C1CCC(=O)NC1=O)C2=O (stereo not shown) [Compound 123] |  |
| > 100 nM | O=C(C#CCN1CCCC1)NCc1ccc2c(c1)CN(C1CCC(=O)NC1=O)C2=O (stereo not shown) [Compound 125] |  |
| > 100 nM | O=C(C#Cc1ccc2ncncc2c1)NCc1ccc2c(c1)CN(C1CCC(=O)NC1=O)C2=O (stereo not shown) [Compound 127] |  |
| 1 to 10 nM | O=C(C#Cc1ccc2[nH]ncc2c1F)NCc1ccc2c(c1)CN(C1CCC(=O)NC1=O)C2=O (stereo not shown) [Compound 130] |  |
